Data reported in ChEMBL document CHEMBL1811912, “Human HDAC isoform selectivity achieved via exploitation of the acetate release channel with structurally unique small molecule inhibitors” (Bioorg Med Chem, 2011).

How the values were obtained:
[1] = molecular target: T1, Protein deacetylase HDAC6 (Homo sapiens, UniProt Q9UBN7); experiment: Inhibition of human HDAC6 using rhodamine as substrate after 1 hrs by fluorescence assay
T1 sequence (Q9UBN7 whole entry): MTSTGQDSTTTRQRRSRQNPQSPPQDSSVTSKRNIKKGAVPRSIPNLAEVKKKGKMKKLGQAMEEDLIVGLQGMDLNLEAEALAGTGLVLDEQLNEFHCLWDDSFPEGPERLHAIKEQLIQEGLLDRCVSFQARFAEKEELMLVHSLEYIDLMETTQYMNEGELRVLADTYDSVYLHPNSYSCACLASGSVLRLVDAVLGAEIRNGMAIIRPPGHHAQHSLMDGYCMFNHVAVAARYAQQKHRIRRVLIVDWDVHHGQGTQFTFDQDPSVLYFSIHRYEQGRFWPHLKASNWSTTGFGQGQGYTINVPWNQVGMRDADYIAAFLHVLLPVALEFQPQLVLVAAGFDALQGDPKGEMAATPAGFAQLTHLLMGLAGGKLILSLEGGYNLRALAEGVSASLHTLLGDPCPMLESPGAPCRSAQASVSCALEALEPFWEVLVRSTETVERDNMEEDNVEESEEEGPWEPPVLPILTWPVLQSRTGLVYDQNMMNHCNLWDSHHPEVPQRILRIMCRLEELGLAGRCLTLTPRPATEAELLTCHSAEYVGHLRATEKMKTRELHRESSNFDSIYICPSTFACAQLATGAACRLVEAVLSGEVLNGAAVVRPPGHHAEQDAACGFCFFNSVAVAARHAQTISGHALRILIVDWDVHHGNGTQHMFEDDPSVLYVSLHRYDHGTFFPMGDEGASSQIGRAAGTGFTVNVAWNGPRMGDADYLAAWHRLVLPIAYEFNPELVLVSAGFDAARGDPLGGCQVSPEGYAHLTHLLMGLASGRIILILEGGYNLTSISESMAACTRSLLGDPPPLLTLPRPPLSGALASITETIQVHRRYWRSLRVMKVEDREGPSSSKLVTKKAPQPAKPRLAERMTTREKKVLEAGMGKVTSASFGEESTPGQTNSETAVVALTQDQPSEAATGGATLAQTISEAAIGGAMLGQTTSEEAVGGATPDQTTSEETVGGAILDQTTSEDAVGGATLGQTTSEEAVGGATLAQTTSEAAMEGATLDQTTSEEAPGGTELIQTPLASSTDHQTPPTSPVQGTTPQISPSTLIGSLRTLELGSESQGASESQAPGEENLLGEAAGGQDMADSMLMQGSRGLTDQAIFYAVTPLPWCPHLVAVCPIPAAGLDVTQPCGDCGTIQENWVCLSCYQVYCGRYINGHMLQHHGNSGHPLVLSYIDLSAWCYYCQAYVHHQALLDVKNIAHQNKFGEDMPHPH

[2] = molecular target: Histone deacetylase 1 (Homo sapiens, UniProt Q13547); experiment: Inhibition of human HDAC1 using rhodamine as substrate after 1 hrs by fluorescence assay
[3] = molecular target: Histone deacetylase 2 (Homo sapiens, UniProt Q92769); experiment: Inhibition of human HDAC2 using rhodamine as substrate after 1 hrs by fluorescence assay
Sequence of Histone deacetylase 2 (Q92769 whole entry): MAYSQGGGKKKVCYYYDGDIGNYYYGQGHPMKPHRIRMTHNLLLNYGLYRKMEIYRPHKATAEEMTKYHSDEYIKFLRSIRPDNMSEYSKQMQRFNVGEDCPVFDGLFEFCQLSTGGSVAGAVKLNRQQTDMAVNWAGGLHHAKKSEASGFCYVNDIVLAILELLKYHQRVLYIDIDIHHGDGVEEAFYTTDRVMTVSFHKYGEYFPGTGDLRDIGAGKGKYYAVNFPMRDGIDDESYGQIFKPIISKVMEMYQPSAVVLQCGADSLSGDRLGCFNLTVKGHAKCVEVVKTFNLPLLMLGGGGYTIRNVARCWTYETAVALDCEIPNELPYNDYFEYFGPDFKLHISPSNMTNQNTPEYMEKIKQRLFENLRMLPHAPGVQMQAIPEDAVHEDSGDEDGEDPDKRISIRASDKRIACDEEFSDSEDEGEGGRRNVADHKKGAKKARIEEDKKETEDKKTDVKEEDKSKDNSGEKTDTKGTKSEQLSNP

Sequence of Histone deacetylase 1 (Q13547 whole entry): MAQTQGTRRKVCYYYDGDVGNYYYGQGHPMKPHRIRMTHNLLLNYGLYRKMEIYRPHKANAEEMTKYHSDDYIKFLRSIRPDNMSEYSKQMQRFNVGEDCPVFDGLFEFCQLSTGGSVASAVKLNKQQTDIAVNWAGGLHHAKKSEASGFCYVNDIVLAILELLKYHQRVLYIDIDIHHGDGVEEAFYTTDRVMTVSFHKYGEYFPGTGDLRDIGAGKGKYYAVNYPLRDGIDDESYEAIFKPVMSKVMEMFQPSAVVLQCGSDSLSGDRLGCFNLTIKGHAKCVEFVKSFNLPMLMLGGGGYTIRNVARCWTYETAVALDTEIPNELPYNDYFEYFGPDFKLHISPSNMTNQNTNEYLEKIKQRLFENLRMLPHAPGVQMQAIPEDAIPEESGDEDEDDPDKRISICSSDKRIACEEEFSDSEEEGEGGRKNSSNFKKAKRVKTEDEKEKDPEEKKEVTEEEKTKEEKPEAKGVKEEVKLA

IC50 [1] [µM] | IC50 [2] [µM] | IC50 [3] [µM] | Structure (SMILES)
> 30 | > 30 | > 30 | N[C@H](Cc1cccc(Cl)c1)C(=O)N1CCN(C(=O)c2cc(F)ccc2F)CC1
> 30 | – | 3.9 | N[C@H](Cc1ccc(Cl)cc1Cl)C(=O)N1Cc2ccccc2C1
